pIC50: −log10 of the molar value. Read-outs that look alike come from different tables or passages of the source.
Assays:
[1] = target: T1, complement C5a receptor 1 (C5aR1) (Homo sapiens, UniProt P21730); test: β-arrestin recruitment via C5aR1 activation in live CHO-K1 cells (PathHunter), antagonist mode; type: cell-based; conditions: antagonist mode; recombinant hC5a (EC90) as competing natural agonist; live CHO-K1 cells; read-out: [Antagonist] B-arrestin2 recruitment: Average IC50
T1 construct: β-galactosidase fragment (PathHunter enzyme complementation); host or cells: CHO-K1 (PathHunter CHO-K1 C5aR1 β-arrestin cell line)
T1 sequence (P21730 1-350): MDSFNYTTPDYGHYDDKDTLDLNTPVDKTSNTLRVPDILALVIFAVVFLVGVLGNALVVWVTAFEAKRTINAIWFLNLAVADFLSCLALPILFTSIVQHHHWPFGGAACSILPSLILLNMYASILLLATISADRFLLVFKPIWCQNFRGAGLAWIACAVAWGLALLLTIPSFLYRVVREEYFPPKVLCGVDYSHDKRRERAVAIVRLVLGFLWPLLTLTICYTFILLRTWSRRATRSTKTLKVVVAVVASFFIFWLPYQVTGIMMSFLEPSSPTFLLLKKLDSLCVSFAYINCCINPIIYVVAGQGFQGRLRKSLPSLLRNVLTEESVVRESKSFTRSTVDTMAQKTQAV
Summary of the method: (§1)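 Live CHO-K1 cells carry two galactosidase enzyme fragments, one fused to β-arrestin and one to C5aR1, so that β-arrestin recruitment restores enzyme activity. Agonist mode tests compounds alone. Antagonist mode tests them against recombinant hC5a at EC90, and IC50 values are reported in binned ranges.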

[2] = target: T1, complement C5a receptor 1 (C5aR1); test: β-arrestin recruitment via C5aR1 activation in live CHO-K1 cells (PathHunter), agonist mode; type: cell-based
Summary of the method: as §1

Structure (SMILES) | pIC50 [1] | [Agonist] B-arrestin2 recruitment: Average EC50 (nM) ([2]; at 10 μM) | [Agonist] B-arrestin2 recruitment: Average EC50 (nM) [2]
Cc1cnc2cc([C@@H]3CC[C@@H](c4c(C)cccc4F)C3)c(=O)n(Cc3ncccc3C(F)(F)F)c2n1 [171D, 7-((1R,3R)-3-(2-Fluoro-6-methylphenyl)cyclopentyl)-3-methyl-5-((3-(trifluoromethyl)pyridin-2-yl)methyl)pyrido[2,3-b]pyrazin-6(5H)-one] | 5.30 to 6.30 | Non-Active at 10 μM | 
Cc1cccc(F)c1N1CCC(c2cc3nccnc3n([C@@H]3CCCc4cccnc43)c2=O)CC1 [40a, (R)-7-(1-(2-Fluoro-6-methylphenyl)piperidin-4-yl)-5-(5,6,7,8-tetrahydroquinolin-8-yl)pyrido[2,3-b]pyrazin-6(5H)-one] | 4.00 to 5.30 |  | Non-Active
Cc1cnc2cc([C@H]3CC[C@H](c4c(F)cccc4C(F)(F)F)CC3)c(=O)n(Cc3ncccc3OC(F)(F)F)c2n1 [compound 216, 7-((1r,4r)-4-(2-Fluoro-6-(trifluoromethyl)phenyl)cyclohexyl)-3-methyl-5-((3-(trifluoromethoxy)pyridin-2-yl)methyl)pyrido[2,3-b]pyrazin-6(5H)-one] | 5.30 to 6.30 | Non-Active at 10 μM | 
Cc1cnc2cc(C3CCN(c4c(C)cccc4F)CC3)c(=O)n([C@@H]3CCC(F)(F)c4nccnc43)c2n1 [149A, (R)-5-(8,8-Difluoro-5,6,7,8-tetrahydroquinoxalin-5-yl)-7-(1-(2-fluoro-6-methylphenyl)piperidin-4-yl)-3-methylpyrido[2,3-b]pyrazin-6(5H)-one] | 4.00 to 5.30 |  | Non-Active
Cc1cccc(F)c1[C@H]1CC[C@H](c2cc3ncc(C(C)(F)F)nc3n(Cc3ncccc3C(F)(F)F)c2=O)CC1 [compound 267, 3-(1,1-Difluoroethyl)-7-[(1r,4r)-4-(2-fluoro-6-tolyl)cyclohexyl]-5-{[3-(trifluoromethyl)-2-pyridyl]methyl}-1,4,5-triaza-6(5H)-naphthalenone] | > 6.30 |  | Non-Active
Cc1nccnc1N1CCC(c2cc3nccnc3n(Cc3ccccc3C(F)(F)F)c2=O)CC1 [compound 8, 7-(1-(3-Methylpyrazin-2-yl)piperidin-4-yl)-5-(2-(trifluoromethyl)benzyl)pyrido[2,3-b]pyrazin-6(5H)-one] | 4.00 to 5.30 |  | Non-Active
Cc1cnc2cc(C3CCN(c4c(C)cccc4F)CC3)c(=O)n(Cc3ncccc3C(F)F)c2n1 [compound 138, 5-((3-(Difluoromethyl)pyridin-2-yl)methyl)-7-(1-(2-fluoro-6-methylphenyl)piperidin-4-yl)-3-methylpyrido[2,3-b]pyrazin-6(5H)-one] | > 6.30 |  | Non-Active
Cc1cnc2cc(N3CCN(c4cc(F)cnc4C)CC3)c(=O)n(Cc3ncccc3C(F)(F)F)c2n1 [compound 69, 7-(4-(5-Fluoro-2-methylpyridin-3-yl)piperazin-1-yl)-3-methyl-5-((3-(trifluoromethyl)pyridin-2-yl)methyl)pyrido[2,3-b]pyrazin-6(5H)-one] | < 4.00 |  | Non-Active
Cc1ncc(F)cc1N1CCC(c2cc3nccnc3n(Cc3ncccc3C(F)(F)F)c2=O)CC1 [compound 44, 7-(1-(5-Fluoro-2-methylpyridin-3-yl)piperidin-4-yl)-5-((3-(trifluoromethyl)pyridin-2-yl)methyl)pyrido[2,3-b]pyrazin-6(5H)-one] | < 4.00 |  | Non-Active
O=c1c(C2CCN(c3ccccc3C(F)(F)F)CC2)cc2nccnc2n1Cc1ccccc1F [compound 10, 5-(2-fluorobenzyl)-7-(1-(2-(trifluoromethyl)phenyl)piperidin-4-yl)pyrido[2,3-b]pyrazin-6(5H)-one] | > 6.30 |  | Non-Active
Cc1cnc2cc(C3CCN(c4c(C)ccnc4F)CC3)c(=O)n(Cc3nccnc3C(F)(F)F)c2n1 [compound 130, 7-(1-(2-Fluoro-4-methylpyridin-3-yl)piperidin-4-yl)-3-methyl-5-((3-(trifluoromethyl)pyrazin-2-yl)methyl)pyrido[2,3-b]pyrazin-6(5H)-one] | > 6.30 |  | Non-Active
Cc1cccc(F)c1N1CCC(c2cc3nccnc3n(Cc3nccn(C(F)F)c3=O)c2=O)CC1 [compound 159, 5-((4-(Difluoromethyl)-3-oxo-3,4-dihydropyrazin-2-yl)methyl)-7-(1-(2-fluoro-6-methylphenyl)piperidin-4-yl)pyrido[2,3-b]pyrazin-6(5H)-one] | 4.00 to 5.30 | Non-Active at 10 μM | 
Cc1cnc2cc([C@H]3CC[C@H](c4c(C)cccc4F)C3)c(=O)n(Cc3ncccc3C(F)F)c2n1 [187B, 5-((3-(Difluoromethyl)pyridin-2-yl)methyl)-7-((1S,3S)-3-(2-fluoro-6-methylphenyl)cyclopentyl)-3-methylpyrido[2,3-b]pyrazin-6(5H)-one] | > 6.30 | Non-Active at 10 μM | 
Cc1cnc2cc([C@H]3CC[C@H](c4c(C)cccc4F)CC3)c(=O)n(Cc3nccnc3C(F)F)c2n1 [148B, 5-((3-(Difluoromethyl)pyrazin-2-yl)methyl)-7-((1r,4r)-4-(2-fluoro-6-methylphenyl)cyclohexyl)-3-methylpyrido[2,3-b]pyrazin-6(5H)-one] | > 6.30 |  | Non-Active
Cc1ccc2cc([C@H]3CC[C@H](c4c(C)cccc4F)CC3)c(=O)n(Cc3ncccc3C3CC3)c2n1 [compound 241, 1-((3-Cyclopropylpyridin-2-yl)methyl)-3-((1r,4r)-4-(2-fluoro-6-methylphenyl)cyclohexyl)-7-methyl-1,8-naphthyridin-2(1H)-one] | > 6.30 |  | Non-Active
Cc1ccc2cc([C@H]3CC[C@H](c4c(C)cccc4F)CC3)c(=O)n(Cc3nccnc3C(F)(F)F)c2n1 [compound 194, 3-((1r,4r)-4-(2-Fluoro-6-methylphenyl)cyclohexyl)-7-methyl-1-((3-(trifluoromethyl)pyrazin-2-yl)methyl)-1,8-naphthyridin-2(1H)-one] | > 6.30 |  | Non-Active
Cc1cccc(F)c1N1CCC(c2cc3nccnc3n([C@@H]3CCc4nccnc43)c2=O)CC1 [160B, (R)-5-(6,7-Dihydro-5H-cyclopenta[b]pyrazin-5-yl)-7-(1-(2-fluoro-6-methylphenyl)piperidin-4-yl)pyrido[2,3-b]pyrazin-6(5H)-one] | 4.00 to 5.30 | Non-Active at 10 μM | 
Cc1cnc2cc([C@H]3CC[C@H](c4c(F)cccc4F)CC3)c(=O)n(Cc3ncccc3C3CC3)c2n1 [compound 235, 5-((3-Cyclopropylpyridin-2-yl)methyl)-7-((1r,4r)-4-(2,6-difluorophenyl)cyclohexyl)-3-methylpyrido[2,3-b]pyrazin-6(5H)-one] | > 6.30 | Non-Active at 10 μM | 
COc1nccc(C)c1[C@H]1CC[C@H](c2cc3ccc(C)nc3n(Cc3ncccc3C(F)(F)F)c2=O)CC1 [compound 234, 3-((1r,4r)-4-(2-Methoxy-4-methylpyridin-3-yl)cyclohexyl)-7-methyl-1-((3-(trifluoromethyl)pyridin-2-yl)methyl)-1,8-naphthyridin-2(1H)-one] | > 6.30 | Non-Active at 10 μM | 
Cc1cnc2cc([C@H]3CC[C@H](c4cnccc4C(C)(F)F)CC3)c(=O)n(Cc3ncccc3C(F)(F)F)c2n1 [compound 188, 7-((1r,4r)-4-(4-(1,1-Difluoroethyl)pyridin-3-yl)cyclohexyl)-3-methyl-5-((3-(trifluoromethyl)pyridin-2-yl)methyl)pyrido[2,3-b]pyrazin-6(5H)-one] | > 6.30 | Non-Active at 10 μM | 
Cc1cccc(F)c1N1CCN(c2cc3nccnc3n(Cc3ncccc3OC(F)(F)F)c2=O)CC1 [compound 123, 7-(4-(2-Fluoro-6-methylphenyl)piperazin-1-yl)-5-((3-(trifluoromethoxy)pyridin-2-yl)methyl)pyrido[2,3-b]pyrazin-6(5H)-one] | > 6.30 |  | Non-Active
Cc1cccc(F)c1C1CCN(c2cc3nccnc3n(Cc3nccnc3C(F)(F)F)c2=O)CC1 [compound 89, 7-(4-(2-Fluoro-6-methylphenyl)piperidin-1-yl)-5-((3-(trifluoromethyl)pyrazin-2-yl)methyl) pyrido[2,3-b]pyrazin-6(5H)-one] | 4.00 to 5.30 |  | Non-Active
Cc1cnc2cc(C3CCN(c4cc(F)cnc4C)CC3)c(=O)n(Cc3nccnc3C(F)(F)F)c2n1 [compound 52, 7-(1-(5-Fluoro-2-methylpyridin-3-yl)piperidin-4-yl)-3-methyl-5-((3-(trifluoromethyl)pyrazin-2-yl)methyl)pyrido[2,3-b]pyrazin-6(5H)-one] | < 4.00 |  | Non-Active

Reference: US20260317320A1, “C5AR1 ANTAGONISTS AND USES THEREOF” (Vanqua Bio, Inc., priority 2022, published 2026)
